# Key:
# [1] = tested on: PARP (poly-ADP ribose polymerase) cleavage in HeLa cells; assay: PARP cleavage by Western blot and cell morphology after illumination; format: cell-based; conditions: 2 µM, 2h, 17 mW.cm^-2, 452 nm filter
# Experimental: HeLa cells were plated in 6-well plates (4.10^5 cells/well) and incubated with 2 µM TP2Py for 2h at 37°C. After varying illumination times (up to 90min) at 17 mW.cm^-2 (Mercury lamp (130W; 380-600nm) + excitation filter centered at 452 nm (± 45 nm)), cells were collected by scraping, washed once in ice-cold PBS, treated with lysis buffer (1% Nonidet P-40, 20 mM Tris pH 8.0, 137 mM NaCl, 10% glycerol (v/v)) supplemented with 1 mM phenyl-methylsulfonyl fluoride, 1 mM sodium orthovanadate and anti-protease cocktail (Complete, Boehringer Mannheim, Germany) for 20 min on ice and further centrifuged at 10000g for 10 min. Protein concentrations were determined using the bicinchoninic acid method (micro BCA, Pierce, USA). 40µg of detergent soluble proteins were separated by SDS-PAGE under reducing conditions followed by Western blotting. Membranes were first incubated overnight at 4°C with the rabbit primary polyclonal antibody anti-PARP (Cell Signaling Technology). Membranes were then probed with horseradish peroxidase-labelled anti-rabbit IgG (dilution, 1/2000) (Dakocytomation). Detection was based on a chemiluminescence detection system (GE Healthcare, Orsay, France). […]
# The cleavage of PARP, a hallmark of apoptosis, was assessed by Western blot using an anti-PARP antibody that recognizes both the entire and cleaved PARP (Fig. 11).
# living MCF-7 cells = assay: Cell death induced by two-photon excitation (multiphoton microscopy); format: cell-based; conditions: two-photon λex 860nm, irradiance 1.25W/cm^2
# Experimental: A similar set up was used for two-photon images except that the excitation source was a 80-MHz mode-locked Mai Tai® Ti:Sapphire tunable laser (720-920 nm, 100 fs laser pulse; Spectra Physics, Mountain View, California) tuned to 860 nm.
# Living MCF-7 cells were treated with 2 µM of TP2Py for 2 hours, exposed to two-photon excitation and simultaneously observed by multiphoton microscopy [using- a pulsed IR laser source for excitation Mai Tai, Spectra Physics, λex = 860nm; irradiance, 1.25W/cm^2, emission slit setting: 560-720nm].
# HeLa cells [2] = tested on: HeLa cells
# Experimental: (§1) Different experiments were conducted and described below: • MCF7 cells were treated with 2µM of TP2Py or TP3Bzim and exposed to illumination (Fig.9A); • HeLa cells were treated with 2µM of TP2Py or TP3Bzim and exposed to illumination (Fig.9B); • MCF7 cells were treated with TP2Py, 40 min illumination (black circles) or without illumination (white circles) (Fig.9C) • HeLa cells were treated with TP2Py [30 min illumination (black circles) or without illumination (white circles)] or TP3Bzim [15 min illumination (black triangles) or without illumination (white triangles)]
# (§2) For each experiment, the source of excitation was a Mercury lamp (130W; 380-600nm) with an excitation filter centered at 452nm (± 45 nm), irradiance, 60mW/cm^2.
# (§3) First, the experiment was calibrated by determining the time of illumination exposure which leads to the toxicity 50%, for a given concentration of TPA (2 µM) and for an irradiance of 60mW/cm^2. […] This characteristic time was then used for the plots shown in Fig. 9C and 9D which represent the cell viability as a function of TPA concentration (in HeLa and MCF-7 cells, respectively).
# HeLa cells [3] = assay: Cytophototoxicity by MTT assay under illumination; format: cell-based; conditions: irradiance 60mW/cm^2
# Experimental: as §1, §2, §3
# MCF-7 cells = assay: FITC-conjugated Annexin V staining, flow cytometric analysis (apoptosis); format: cell-based; conditions: for HMFI population: 30 min illumination; for HMFI population (Annexin V positive, TP2Py positive): 2µM, 2 hours
# Experimental: MCF-7 cells were plated in 12-well plates (2.10^5 cells/well) and incubated with 2µM of TP2Py for 2h at 37°C. Under specific conditions (see Fig. 12), cells were further incubated with NAC (1mM) for 30 min, Bapta-AM (20µM) for 3h, or CsA (10µM) for 1h at 37°C. After a time illumination of either 30 or 60 min at […] (Mercury lamp (130W; 380-600nm) + excitation filter centered at 452nm (± 45nm)), cells were gently scraped and pooled with medium floating cells. Cells were individualized in PBS-EDTA (10mM) and stained as described by the manufacturer (Roche, Germany). Briefly, the cell pellet was re-suspended in 500µl Annexin V-HEPES solution (10 mM HEPES-NaOH, pH 7.4, 140mM NaCl, 5mM CaCl2) and incubated on ice for 30 min in the dark. Cells were then washed in ice-cold HEPES buffer before analysis. Fluorescence signals of fluorescently labelled (FITC) Annexin V and TP2Py were measured by a FACSCalibur flow cytometer (Becton-Dickinson, Sunnyvale, CA, USA) using FL1 and FL2 detectors, respectively.
# Different experiments are summarized below: • MCF-7 cells treated with 2µM TP2Py for 2 hours and then stained with FITC-conjugated Annexin V immediately (Fig.12A) without light exposure; • MCF-7 cells treated with 2µM TP2Py for 2 hours and then stained with FITC-conjugated Annexin V after a time illumination (Exc, 452 nm) of 30 min (Fig.12B); • MCF-7 cells treated with 2µM TP2Py for 2 hours and then stained with FITC-conjugated Annexin V after a time illumination (Exc, 452 nm) of 60 min (Fig.12C); • control MCF-7 cells treated with DMSO (1%) only and illuminated for 30 min before Annexin V staining (Fig.12D); • control MCF-7 cells treated with 1µg/mL actinomycin D (ActD), no illumination before Annexin V staining (Fig.12E); • control MCF-7 cells treated with camptothecin (CPT, 10µM)) (Fig.12F) for 2.5 hours, no illumination before Annexin V staining; • MCF-7 cells treated during 2 hours with 2µM TP2Py and 10µM cyclosporine A (CsA) and illuminated for 30 min before Annexin V staining (Fig.12G); • MCF-7 cells treated during 2 hours with 2µM TP2Py and 1 mM N-Acetyl cysteine (NAC) and illuminated for 30 min before Annexin V staining (Fig.12H); and • MCF-7 cells treated during 2 hours with 2µM TP2Py and 20µM Bapta-am (Fig.12I) and illuminated for 30 min before Annexin V staining.
# The horizontal (FL1-H) and vertical (FL2-H) axes correspond to the fluorescence signal of Annexin V and TP2Py, respectively. The percentage of population with a high mean fluorescence signal is indicated in the corresponding quadrant (top right or bottom right in the presence or absence of TP2Py, respectively).
smiles,measurement,setting,value
C[n+]1ccc(/C=C/c2ccc(N(c3ccccc3)c3ccc(/C=C/c4cc[n+](C)cc4)cc3)cc2)cc1 [TP2Py],illumination time after which PARP cleavage was detected,[1],60 min
same,start of re-localization into the nucleus after the first excitation,"living MCF-7 cells; 2 µM, 2 hours",5 to 15 min
same,light dose,living MCF-7 cells,≈ 300 J/cm^2
same,dark toxicity (concentration below which negligible),HeLa cells [2],≥ 50 µM
same,illumination time required for the same TC50 under illumination,"HeLa cells [3]; Mercury lamp, filter 452nm",30 min
same,corresponding light dose,HeLa cells [3],108 J/cm^2
same,HMFI population,MCF-7 cells; 2µM TP2Py with 10µM cyclosporine A (CsA),13%
same,HMFI population,MCF-7 cells; 2µM TP2Py with 20µM Bapta-am,19%
same,HMFI population,MCF-7 cells; 2µM TP2Py with 1 mM N-Acetyl cysteine (NAC),25%
same,"HMFI population (Annexin V positive, TP2Py positive)","MCF-7 cells; 30 min illumination (452 nm, 40 MW.cm^-2)",29%
same,"HMFI population (Annexin V positive, TP2Py positive)",MCF-7 cells; 60 min illumination,38%
same,"HMFI population (Annexin V positive, TP2Py positive)",MCF-7 cells; without light illumination,4.3%

# Reference: patent publication EP2711366A1, “Cationic triphenylamine derivatives activable by visible and Infra Red light for inducing and imaging apoptosis in cancer cells” (Institut Curie, priority 2012, dated 2014)
